Reference: patent US12310365B2 (priority 2009, dated 2025)
Counter-ions that a name gives are not always drawn. Like-named read-outs stand apart in the source and are kept apart here.

Assays:
Type in all cases: in vivo
[1] = test system: Pseudoperonospora cubensis; experiment: Cucumber downy mildew curative test; conditions: Pseudoperonospora cubensis, topical, 168 h, single ingredient; for pest or weed control at 10 ppm: treatment concentration 10 ppm
Phytophthora infestans [2] = experiment: whole plant or invertebrate; conditions: in Solanum lycopersicum, topical, 168 h, read-out: Control value
[3] = test system: Pseudoperonospora cubensis; experiment: Cucumber downy mildew preventive test; conditions: Pseudoperonospora cubensis, topical, 168 h; for pest or weed control at 10 ppm: treatment concentration 10 ppm
Phytophthora infestans [4] = experiment: whole plant or invertebrate; conditions: in Solanum lycopersicum, topical, 168 h, read-out: Control value; remark: listed apart in the source
Sphaerotheca fuliginea [5] = experiment: Cucumber powdery mildew preventive test; conditions: Podosphaera fuliginea, topical, 168 h; treatment concentration 10 ppm
[6] = test system: Botrytis cinerea (Diethofencarb-resistant strain); experiment: Tomato gray mold preventive test (Diethofencarb-resistant strain); conditions: Botrytis cinerea, topical, 48 h, read-out: Control value
Pyricularia oryzae [7] = experiment: whole plant or invertebrate; conditions: topical, 168 h, read-out: Control value
Pyricularia oryzae [8] = experiment: whole plant or invertebrate; conditions: topical, 168 h, read-out: Control value; remark: listed apart in the source
Sphaerotheca fuliginea [9] = experiment: Cucumber powdery mildew curative test; conditions: Podosphaera fuliginea, topical, 168 h; treatment concentration 10 ppm
[10] = treatment concentration 160 ppm

Row | Compound | pest or weed control at 40 ppm ([1]; treatment concentration 40 ppm) [%] | pest or weed control at 40 ppm (Phytophthora infestans [2]) [%] | pest or weed control at 40 ppm ([3]; treatment concentration 40 ppm) [%] | pest or weed control at 40 ppm (Phytophthora infestans [4]) [%] | pest or weed control at 10 ppm [1] [%] | pest or weed control at 10 ppm (Sphaerotheca fuliginea [5]) [%] | pest or weed control at 10 ppm (Phytophthora infestans [2]) [%] | pest or weed control at 10 ppm [6] [%] | pest or weed control at 10 ppm (Pyricularia oryzae [7]) [%] | pest or weed control at 10 ppm [3] [%] | pest or weed control at 10 ppm (Pyricularia oryzae [8]) [%] | pest or weed control at 10 ppm (Phytophthora infestans [4]) [%] | pest or weed control at 10 ppm (Sphaerotheca fuliginea [9]) [%] | pest or weed control at 160 ppm [1, 10] [%] | pest or weed control at 160 ppm (Phytophthora infestans [2]) [%] | pest or weed control at 160 ppm [3, 10] [%] | pest or weed control at 160 ppm (Phytophthora infestans [4]) [%]
1 | N#Cc1c(Cl)c(Cl)c(Cl)c(C#N)c1Cl [TPN, Chlorothalonil (TPN)] | 83 | 0 | 60 | 0 |  |  |  |  |  |  |  |  |  |  |  |  | 
2 | CC1(C)N=C(c2cnc3ccccc3c2)c2ccccc2C1(F)F [B, 3-(4,4-difluoro-3,3-dimethyl-3,4-dihydroisoquinolin-1-yl)quinoline] |  |  |  |  | 33 | 60 | 0 | 83 | 86 | 28 | 83 | 0 | 73 |  |  |  | 
3 | CCCOC(=O)NCCCN(C)C [Propamocarb hydrochloride] |  |  |  |  |  |  |  |  |  |  |  |  |  | 0 | 0 | 20 | 0
4 | CC1(C)N=C(c2cnc3ccccc3c2)c2cccc(F)c2C1(C)C [Compound A, 3-(5-fluoro-3,3,4,4-tetramethyl-3,4-dihydroisoquinolin-1-yl)quinoline] |  |  |  |  | 17 | 50 | 0 | 83 |  | 20 |  | 0 | 67 |  |  |  | 
5 | CC1(C)N=C(c2cnc3ccccc3c2)c2cccc(F)c2C1(F)F [C, 3-(4,4,5-trifluoro-3,3-dimethyl-3,4-dihydroisoquinolin-1-yl)quinoline] |  |  |  |  | 33 | 65 | 0 | 80 |  | 33 |  | 0 | 73 |  |  |  | 
